{
  "source": "patent US9796719B2",
  "about": "“Compounds and pharmaceutical compositions thereof for the treatment of inflammatory disorders” (GALAPAGOS NV, priority 2013, dated 2017)",
  "data": [
    {"biological_target": "hENPP2 (UniProtKB/SwissProt Sequence ref Q13822) (Homo sapiens (Human), UniProt Q13822)", "assay": "LPC hENPP2 assay (choline release, LPC as substrate)", "type": "biochemical", "method": "The principle of the assay consists in quantifying the released choline with an enzymatic method using choline oxidase and peroxidase. Choline oxydation by choline oxydase releases betaine and peroxide. The latter is quantified in presence of HRP that converts the peroxide detection agent TOOS and 4-aminoantipyrine into quinoneimine dye. The appearance of quinoneimine dye is measured spectrophotometrically at 555 nm and is proportional to the amount of choline released by ENPP2. Inhibition of ENPP2 will result in a decrease of the signal.\nThe reaction is terminated and choline quantified by the addition of a 25 μL of a mixture containing 0.6 U/mL of choline oxidase, 0.6 U/mL of peroxydase, 1.8 mM TOOS, 1.2 mM amino-antipyrine, 20 mM EGTA (stop-developer solution) diluted in the buffer described above. […] is read on the Envision after an incubation of 30 min at room temperature (Excitation 555 nm, excitation light=70%).", "units": {"IC50": "nM"}, "values": [
      {"molecule": "CCc1nc2ccc(N3CCC(N4CCC(OC)CC4)C3)nn2c1N(C)c1nc(-c2ccc(F)cc2)c(C#N)s1", "note": "(stereo not shown) [Cpd 183, 2-((2-ethyl-6-(3-(4-methoxypiperidin-1-yl)pyrrolidin-1-yl)imidazo[1,2-b]pyridazin-3-yl)(methyl)amino)-4-(4-fluorophenyl) thiazole-5-carbonitrilc]", "IC50": "0.01 to 100"},
      {"molecule": "CCc1nc2ccc(N3CCC(O)(CNC(C)=O)C3)nn2c1N(C)c1nc(-c2ccc(F)cc2)c(C#N)s1", "note": "(stereo not shown) [Cpd 169, N-((1-(3-((5-cyano-4-(4-fluorophenyl)thiazol-2-yl)(methyl)amino)-2-ethylimidazo[1,2-b]pyridazin-6-yl)-3-hydroxypyrrolidin-3-yl)methyl)acetamide]", "IC50": "0.01 to 100"},
      {"molecule": "CCc1nc2ccc(N3CC(CO)C3)nn2c1N(C)c1nc(-c2ccc(F)cc2)cs1", "note": "[Cpd 153, (1-(2-ethyl-3-((4-(4-fluorophenyl)thiazol-2-yl)(methyl)amino)imidazo[1,2-b]pyridazin-6-yl)azetidin-3-yl)methanol]", "IC50": "> 1000"},
      {"molecule": "CCc1nc2ccc(N3CC(NCC(=O)NC)C3)nn2c1N(C)c1nc(-c2ccc(F)cc2)cs1", "note": "[Cpd 157, 2-(1-(2-ethyl-3-((4-(4-fluorophenyl)thiazol-2-yl)(methyl)amino)imidazo[1,2-b]pyridazin-6-yl)azetidin-3-ylamino)-N-methylacetamide]", "IC50": "500 to 1000"},
      {"molecule": "CCc1nc2ccc(N3CCCC(N4CCC(O)CC4)C3)nn2c1N(C)c1nc(-c2ccc(F)cc2)cs1", "note": "(stereo not shown) [Cpd 112, l′-(2-ethyl-3-((4-(4-fluorophenyl)thiazol-2-yl)(methyl)amino)imidazo[1,2-b]pyridazin-6-yl)-1,3′-bipiperidin-4-ol]", "IC50": "> 1000"},
      {"molecule": "CCc1nc2ccc(N3C[C@H]4C[C@H]3CN4C(C)=O)nn2c1N(C)c1nc(-c2ccc(F)cc2)cs1", "note": "[Cpd 75, 1-((1R,4S)-5-(2-ethyl-3-((4-(4-fluorophenyl)thiazol-2-yl)(methyl)amino)imidazo[1,2-b]pyridazin-6-yl)-2,5-diazabicyclo[2.2.1]heptan-2-yl)ethanone]", "IC50": "> 1000"},
      {"molecule": "CCc1nc2ccc(N3CCN(CC(=O)N4CCC(F)(F)C4)CC3)nn2c1N(C)c1nc(-c2ccc(F)cc2)cs1", "note": "[Cpd 31, 1-(3,3-difluoropyrrolidin-l-yl)-2-(4-(2-ethyl-3-((4-(4-fluorophenyl)thiazol-2-yl)(methyl)amino)imidazo[1,2-b]pyridazin-6-yl)piperazin-l-yl)ethanone]", "IC50": "100 to 500"},
      {"molecule": "CCc1nc2ccc(N3CCC(N4CCC(CO)CC4)C3)nn2c1N(C)c1nc(-c2ccc(F)cc2)c(C#N)s1", "note": "(stereo not shown) [Cpd 179, 2-((2-ethyl-6-(3-(4-(hydroxymethyl)piperidin-1-yl)pyrrolidin-1-yl)imidazo[1,2-b]pyridazin-3-yl)(methyl)amino)-4-(4-fluorophenyl) thiazole-5-carbonitrile]", "IC50": "0.01 to 100"},
      {"molecule": "CCc1nc2ccc(N3CCC4(CCCCC4)CC3)nn2c1N(C)c1nc(-c2ccc(F)cc2)cs1", "note": "[Cpd 77, N-(2-ethyl-6-(3-azaspiro[5.5]undecan-3-yl)imidazo[1,2-b]pyridazin-3-yl)-4-(4-fluorophenyl)-N-methylthiazol-2-amine]", "IC50": "> 1000"},
      {"molecule": "CCc1nc2ccc(N3CCN(CC(=O)N(C)C)CC3)nn2c1N(C)c1nc(-c2ccc(F)cc2C)cs1", "note": "[Cpd 73, 2-(4-(2-ethyl-3-((4-(4-fluoro-2-methylphenyl)thiazol-2-yl)(methyl)amino)imidazo[1,2-b]pyridazin-6-yl)piperazin-1-yl)-N,N-dimethylacetamide]", "IC50": "100 to 500"},
      {"molecule": "CCc1nc2ccc(N3CCN(CC(=O)N(C)C(C)C)CC3)nn2c1N(C)c1nc(-c2ccc(F)cc2)cs1", "note": "[Cpd 37, 2-(4-(2-ethyl-3-((4-(4-fluorophenyl)thiazol-2-yl)(methyl)amino)imidazo[1,2-b]pyridazin-6-yl)piperazin-1-yl)-N-isopropyl-N-methylacetamide]", "IC50": "100 to 500"},
      {"molecule": "CCc1nc2ccc(N3CCC(CNC(=O)OC(C)(C)C)CC3)nn2c1N(C)c1nc(-c2ccc(F)cc2)cs1", "note": "[Cpd 103, [1-(2-Ethyl-3-{[4-(4-fluoro-phenyl)-thiazol-2-yl]-methyl-amino}-imidazo[1,2-b]pyridazin-6-yl)-piperidin-4-ylmethyl]-carbamic acid tert-butyl ester]", "IC50": "> 1000"},
      {"molecule": "CCc1nc2ccc(N3CCN(CC(=O)N4C(C)CCC4C)CC3)nn2c1N(C)c1nc(-c2ccc(F)cc2)cs1", "note": "(stereo not drawn) [Cpd 32, 1-(2,5-dimethylpyrrolidin-l-yl)-2-(4-(2-ethyl-3-((4-(4-fluorophenyl)thiazol-2-yl)(methyl)amino)imidazo[1,2-b]pyridazin-6-yl)piperazin-1-yl)ethanone]", "IC50": "> 1000"},
      {"molecule": "CCc1nc2ccc(C3CCN(CC(=O)N(C)C)CC3)nn2c1N(C)c1nc(-c2ccc(F)cc2C#N)cs1", "note": "[Cpd 208, 2-(4-(3-((4-(2-cyano-4-fluorophenyl)thiazol-2-yl)(methyl)amino)-2-ethylimidazo[1,2-b]pyridazin-6-yl)piperidin-1-yl)-N,N-dimethylacetamide]", "IC50": "100 to 500"},
      {"molecule": "CCc1nc2ccc(N3CCN(C(=O)OC(C)(C)C)[C@H](CO)C3)nn2c1N(C)c1nc(-c2ccc(F)cc2)cs1", "note": "[Cpd 59, (S)-tert-butyl 4-(2-ethyl-3-((4-(4-fluorophenyl)thiazol-2-yl)(methyl)amino)imidazo[1,2-b]pyridazin-6-yl)-2-(hydroxymethyl) piperazine-1-carboxylate]", "IC50": "> 1000"},
      {"molecule": "CCc1nc2ccc(N3CC[C@H](NCC(=O)N4CC(O)C4)C3)nn2c1N(C)c1nc(-c2ccc(F)cc2)c(C#N)s1", "note": "[Cpd 174, (S)-2-((2-ethyl-6-(3-(2-(3-hydroxyazetidin-1-yl)-2-oxoethylamino)pyrrolidin-1-yl)imidazo[1,2-b]pyridazin-3-yl)(methyl)amino)-4-(4-fluorophenyl) thiazole-5-carbonitrile]", "IC50": "0.01 to 100"},
      {"molecule": "CCc1nc2ccc(N3CCC(N4CCOCC4)C3)nn2c1N(C)c1nc(-c2ccc(F)cc2)c(CO)s1", "note": "(stereo not shown) [Cpd 148, (2-((2-ethyl-6-(3-morpholino-pyrrolidin-1-yl)imidazo[1,2-b]pyridazin-3-yl)(methyl)amino)-4-(4-fluorophenyl)thiazol-5-yl) methanol]", "IC50": "500 to 1000"},
      {"molecule": "CCc1nc2ccc(N3CCC(CNS(C)(=O)=O)CC3)nn2c1N(C)c1nc(-c2ccc(F)cc2)cs1", "note": "[Cpd 105, N-((1-(2-ethyl-3-((4-(4-fluorophenyl)thiazol-2-yl)(methyl)amino)imidazo[1,2-b]pyridazin-6-yl)piperidin-4-yl)methyl) methanesulfonamide]", "IC50": "> 1000"},
      {"molecule": "CCc1nc2ccc(N3CCC(NC(=O)C4CCNCC4)CC3)nn2c1N(C)c1nc(-c2ccc(F)cc2)cs1", "note": "[Cpd 88, N-(1-(2-ethyl-3-((4-(4-fluorophenyl)thiazol-2-yl)(methyl)amino)imidazo[1,2-b]pyridazin-6-yl)piperidin-4-yl)piperidine-4-carboxamide]", "IC50": "500 to 1000"},
      {"molecule": "CCc1nc2ccc(N3CCN(S(C)(=O)=O)[C@H](CO)C3)nn2c1N(C)c1nc(-c2ccc(F)cc2)c(CO)s1", "note": "[Cpd 68, (S)-(4-(2-ethyl-3-((4-(4-fluorophenyl)-5-(hydroxymethyl)thiazol-2-yl)(methyl)amino)imidazo[1,2-b]pyridazin-6-yl)-1-(methylsulfonyl)piperazin-2-yl)methanol]", "IC50": "100 to 500"},
      {"molecule": "CCc1nc2ccc(N3CCC4(CCOCC4)C3)nn2c1N(C)c1nc(-c2ccc(F)cc2)c(CO)s1", "note": "[Cpd 186, (2-((2-ethyl-6-(8-oxa-2-azaspiro[4.5]decan-2-yl)[1,2-b]pyridazin-3-yl)(methyl)amino)-4-(4-fluorophenyl)thiazol-5-yl)methanol]", "IC50": "100 to 500"},
      {"molecule": "CCc1nc2ccc(C3=CCN(S(C)(=O)=O)CC3)nn2c1N(C)c1nc(-c2ccc(F)cc2C#N)cs1", "note": "[Cpd 204, 2-(2-((2-ethyl-6-(1-(methylsulfonyl)-1,2,3,6-tetrahydropyridin-4-yl)imidazo[1,2-b]pyridazin-3-yl)(methyl)amino)thiazol-4-yl)-5-fluorobenzonitrile]", "IC50": "100 to 500"},
      {"molecule": "CCc1nc2ccc(N3CCCC4(CN(C)C(=O)O4)C3)nn2c1N(C)c1nc(-c2ccc(F)cc2)c(C#N)s1", "note": "(stereo not shown) [Cpd 163, 2-((2-ethyl-6-(3-methyl-2-oxo-1-oxa-3,7-diazaspiro[4.5]decan-7-yl)imidazo [1,2-b]pyridazin-3-yl)(methyl)amino)-4-(4-fluorophenyl) thiazole-5-carbonitrile]", "IC50": "> 1000"},
      {"molecule": "CCc1nc2ccc(N3CCC(NCC(=O)OC)C3)nn2c1N(C)c1nc(-c2ccc(F)cc2)cs1", "note": "(stereo not shown) [Cpd 135, methyl 2-(1-(2-ethyl-3-((4-(4-fluorophenyl)thiazol-2-yl)(methyl)amino)imidazo[1,2-b]pyridazin-6-yl)pyrrolidin-3-ylamino)acetate]", "IC50": "500 to 1000"},
      {"molecule": "CCc1nc2ccc(N3CCC(N(C)C)CC3)nn2c1N(C)c1nc(-c2ccc(F)cc2)cs1", "note": "[Cpd 80, N-(6-(4-(dimethylamino)piperidin-1-yl)-2-ethylimidazo[1,2-b]pyridazin-3-yl)-4-(4-fluorophenyl)-N-methylthiazol-2-amine]", "IC50": "> 1000"},
      {"molecule": "CCc1nc2ccc(N3CCC(N4CCCCC4)CC3)nn2c1N(C)c1nc(-c2ccc(F)cc2)cs1", "note": "[Cpd 111, N-(6-(1,4′-bipiperidin-1′-yl)-2-ethylimidazo[1,2-b]pyridazin-3-yl)-4-(4-fluorophenyl)-N-methylthiazol-2-amine]", "IC50": "> 1000"},
      {"molecule": "CCc1nc2ccc(N3CC(N)C3)nn2c1N(C)c1nc(-c2ccc(F)cc2)c(C#N)s1", "note": "[Cpd 188, 2-((6-(3-aminoazetidin-1-yl)-2-ethylimidazo[1,2-b]pyridazin-3-yl)(methyl)amino)-4-(4-fluorophenyl) thiazole-5-carbonitrile]", "IC50": "0.01 to 100"},
      {"molecule": "CCc1nc2ccc(N3CCN(CCCO)CC3)nn2c1N(C)c1nc(-c2ccc(F)cc2)c(CO)s1", "note": "[Cpd 50, 3-(4-(2-ethyl-3-((4-(4-fluorophenyl)-5-(hydroxymethyl)thiazol-2-yl)(methyl)amino)imidazo[1,2-b]pyridazin-6-yl)piperazin-1-yl)propan-1-ol]", "IC50": "> 1000"}
    ]}
  ]
}
